These are literature values, as cited in patent US8741342B2, “Pharmaceutical compositions comprising entacapone, levodopa, and carbidopa” (Wockhardt Research Centre, priority 2006, dated 2014).

For this data set the following is noted: qualitative description in background section.

For the compound `C[C@@](Cc1ccc(O)c(O)c1)(NN)C(=O)O` [Carbidopa, (−)-L-(α-hydrazino-(α-methyl-β-(3,4-dihydroxybenzene)propanoic acid monohydrate], the solubility in water result is “slightly soluble in water”.
In the case of `N[C@@H](Cc1ccc(O)c(O)c1)C(=O)O` [Levodopa, (−)-L-α-amino-β-(3,4-dihydroxybenzene)propanoic acid], the solubility in water entry is listed as “slightly soluble in water”.
